Laboratory results from ChEMBL document CHEMBL3507680, “University of Dundee, Gates Library screen for HepG2 cell viability”.

Experiment: Human HepG2 cell viability assay in 384 well format
Format: toxicity, cell-based
Design: dose 125 nL, time 70.5 hour; cytotoxicity at 70.5 h: concentration not given beside the values
Conditions: HepG2 cells, read-out: Inhibition

SMILES	cytotoxicity at 70.5 h [%]
O=C(NC1CC1)N1C[C@H]2CN(c3ccccc3)C(=O)[C@H]2C1	4.91
O[C@H]1CC[C@@H](Cc2cc(-c3ccccc3)on2)O[C@@H]1CNCC1CC1	-5.25
CCc1nc(CN(C(C)=O)C2CCN(Cc3csc(C)n3)C2)no1 (stereo not drawn)	-2.47
Cc1n[nH]c(C)c1NC(=O)CN1CCCC1Cn1cncn1 (stereo not drawn)	-0.918
CC(=O)c1ccc(C(=O)N2CCCCC2c2nc[nH]n2)cc1 (stereo not drawn)	1.34
CC(NC(=O)CCCc1nc(C(C)(C)C)no1)c1nnc2n1CCC2 (stereo not drawn)	-2.92
COCCN1CCC(CN(Cc2ccncc2)C2CCCCC2)CC1	-6.59
COCCN(Cc1nc2c(cnn2C)c(=O)[nH]1)C(C)COC (stereo not drawn)	-7.19
CNS(=O)(=O)c1ccc(CNC(=O)C2CCCO2)cc1 (stereo not drawn)	27.2
O=C(NC1CCN(c2ncccn2)CC1)c1cc2c(cc1O)CCCC2	6.37
CC(C)(O)CNC(=O)c1sccc1Br	0.0507
CCc1ccccc1CNC(=O)NCc1cnn(C)c1	-11.8
CC[C@H]1CN(C(=O)c2cccc(-n3cnnc3)n2)CC[C@@]1(C)O	19.7
CCN(Cc1nc2c(cnn2C)c(=O)[nH]1)c1cc(C)ccc1C	-15.9
CCN1CCN(C(=O)CCC2CCN(C(C)CCC(=O)OC)CC2)CC1 (stereo not drawn)	8.92
Cc1ccc2c(n1)N(CC(C)C)CCN(C(=O)Cc1ccccn1)C2	-4.9
CCN(CC)C1(Cc2cc(-c3cccc(O)c3)on2)COC1	-8.06
Fc1ccc2c(c1)nc1n2[C@@H](CNCc2nccs2)COC1	-7.36
O=C(CC1CCCC1)NCCS(=O)(=O)N1CCN(c2ncccn2)CC1	-11
O=C(Nc1cnccn1)[C@@H]1CCO[C@@H]2CCN(Cc3ccsc3)C[C@@H]21	-9.48
O=C(CN1CCN(C(=O)Cc2ccc3c(c2)OCCO3)CC1)NC1CC1	-12.7
CN(C)c1cc(CNC(=O)NCC2(C)CCCS2)ccn1 (stereo not drawn)	10.1
CCN1CC2(CCC1=O)CCN(Cc1cccc(OC(F)F)c1)CC2	20.5

SMILES	cytotoxicity at 70.5 h [%]
CNC(=O)CCN(C)CC1(c2ccc(Br)cc2)CC1	-0.48
COc1ccc(C[C@H]2CN(C(=O)c3ccc(C)nc3)CC[C@@H]2OC)cc1	-2.92
CC(OCC1CC1)C(=O)N1CCCN(c2ncccc2C#N)CC1 (stereo not drawn)	15.5
O[C@@H]1C[C@@](CNCC2CCCC2)(COc2cccnc2)C[C@@H]1O	-6.04
CC(Nc1ncnc2sccc12)c1cnn(C)c1 (stereo not drawn)	-12.3
COc1ncccc1CNC(=O)NC1CCCOc2ccccc21 (stereo not drawn)	-4.36
Cc1cccc(CN2C[C@@H]3CN(C(=O)c4cnccn4)C[C@@H]3C2=O)n1	-0.986
c1cc(CN2CCOCC3(CCNCC3)C2)ccn1	23
CCn1c(N)nc2cc(C(=O)NCCc3ccccc3F)cnc21	-28.6
Cc1cc(NC(=O)c2nc(N3CCCC3)ncc2Cl)nc(C(C)C)n1	2.57
CCN(C)Cc1n[nH]c(=O)n1-c1cc(F)ccc1C	-5.83
CC(O)CN1CCC(CNCc2ccc(C#N)cc2)CC1 (stereo not drawn)	0.277
Cc1ccc(CN2CCN(CC3CC3)[C@@H]3CS(=O)(=O)C[C@@H]32)cc1C	-6.12
CC(C)c1cc(CN2CCC(N)CC2)on1	19.4
O=C(NCc1ccccc1)[C@H]1C[C@@H]2CN(C(=O)NC3CCCC3)C[C@H]1O2	16.8
Cc1cccc(S(=O)(=O)NC(=O)CN(C)Cc2ccccc2)c1	1.15
CCC(CC)C(=O)N(C)CC(=O)Nc1ccc(Br)cn1	-1.35
CC1=N[C@@]2(CC[C@@H]3CNC[C@@H]32)C(=O)N1CC(C)C	31.4
O[C@H]1[C@H](n2cc(-c3ccccn3)nn2)c2ccccc2C12CCNCC2	-3.68
Cn1cnc2c1CCN(Cc1ccc(Cl)c3cccnc13)C2	15.6
CC(Cn1ccnc1)NC(=O)N1CCN(Cc2ccco2)CC1 (stereo not drawn)	0.365
CC(C)C(C)N(Cc1cnc2ccccc2n1)Cc1ccco1 (stereo not drawn)	-8.62
CC(NC(=O)CNCCn1cccn1)c1ccc2c(c1)CCCC2 (stereo not drawn)	-4.4

SMILES	cytotoxicity at 70.5 h [%]
Cc1cc(Cc2ccc(S(=O)(=O)N3CCCC3)cc2)c(=O)[nH]n1	-23.4
COC[C@@]12CCO[C@@H]1CCN(C(=O)Cc1ccc(C)cc1)C2	31.2
CC(C)c1nnc(CN2CCC3(CC2)Nc2ccccc2NC3=O)o1	18
CN1CCC(c2cccc(-c3cccc(C(=O)O)c3)n2)CC1	-8.16
Cn1cc(C(=O)N2C[C@@H]3CN(S(C)(=O)=O)CCO[C@@H]3C2)cn1	-0.664
COCCOc1ncccc1C(=O)N(C)c1nccs1	-14.2
Cc1nn(C(C)C)c(C)c1NC(=O)c1ccncc1	-5.05
Cc1cccc(C(=O)NCC(O)c2ccc(F)cc2F)c1 (stereo not drawn)	-0.893
CCN(CC1CCCN(CCc2cccc(OC)c2)C1)C(=O)CSC (stereo not drawn)	-8.89
c1csc(-c2noc(CN3CCc4cncnc4C3)n2)c1	-8.24
CCS(=O)(=O)NC[C@]12COC[C@H]1CN(Cc1cc(C)on1)C2	-6.04
Cn1nc(C(=O)N2CCOCC2)c2c1CN(CC1CCC1)C2	-5.26
O=c1[nH]c(-c2ccc(Cl)cc2)nc2c1CCNC2	12.1
CC(C)(C)C(=O)CN1CCc2ccccc2NCCC1=O	3.4
COc1cc(OC)c(-c2nc3c([nH]2)c(C2CC2)nn3C)cc1OC	-3.1
CN(Cc1cnn(C)c1)C(=O)CCC(=O)c1ccc2c(c1)OCCO2	-82.6
COCCn1cc(NCc2cccc3cn[nH]c23)cn1	-5.47
CCCc1noc(CN2CCN(c3nccs3)CC2)n1	-6.87
COCCNS(=O)(=O)c1ccc(CNc2ncccc2C#N)cc1	-12.6
CCn1ccnc1CN(C)C(=O)Cn1ccc2ccccc2c1=O	-10.4
Cn1cc(-c2nnn3c2COC(CNC(=O)c2cccs2)C3)cn1 (stereo not drawn)	22.3
Cc1cc(C2CCCN2C(=O)NCc2cccc(F)c2)on1 (stereo not drawn)	-8.57
O=C(COc1ccc(F)cc1)N1CCCSCC1CN1CCOCC1 (stereo not drawn)	5.05

SMILES	cytotoxicity at 70.5 h [%]
CCOCC1CN(Cc2cccs2)Cc2nn(C)cc21 (stereo not drawn)	-6.21
CC(C)NC[C@@]1(COc2ccccc2)C[C@@H](O)[C@@H](O)C1	-5.31
CC1(C)OCC2(CO1)CN(S(=O)(=O)c1ccc(Cl)s1)C2	-1.76
CCS(=O)(=O)NC(CCSC)C(=O)Nc1ccc(F)cc1 (stereo not drawn)	-85.2
CCN(C(c1cccnc1)c1cc(C)cc(C)c1)S(C)(=O)=O (stereo not drawn)	-9.96
COc1ccccc1Oc1ncccc1CNC(=O)[C@@H](N)CCO	8.7
Cc1cccc(CN2CCc3nnc(CN4CCCCC4)n3CC2)n1	-5.9
CC1CN(Cc2ccccc2Cn2cccn2)CCN1C (stereo not drawn)	-0.364
CCc1ccc(C(C)NCc2nccn2Cc2ccccc2)o1 (stereo not drawn)	-9.96
CCOCC1CN(C(=O)c2ccsc2)Cc2nn(C)cc21 (stereo not drawn)	-8.31
CC(NC1(CNC(=O)NC2CC2)CCOCC1)c1ccccc1 (stereo not drawn)	14.3
Cc1ncc(CN2CCCN(Cc3noc(C4CC4)n3)CC2)s1	23.6
CCn1cc(S(=O)(=O)N2CCCSc3ccccc32)cn1	-7.44
CN(C)CC1CSCCCN1S(=O)(=O)c1ccc(C(F)(F)F)cc1 (stereo not drawn)	-3.11
CCNC(=O)[C@@H]1C[C@@H](NC(=O)c2cc(C)on2)CN1Cc1ccccn1	24.8
N#Cc1ccc(CNCCn2cccn2)c(F)c1	13.7
COc1cccc2c1OCC(CNC(=O)COCC(F)(F)C(F)F)C2 (stereo not drawn)	8.83
CN1CC[C@H]2OCC[C@@H](C(=O)NCc3ccco3)[C@@H]2C1	9.03
CCCN(CC(F)(F)F)C(=O)c1cc(F)cc2[nH]cnc12	0.747
O=C(c1cnco1)N1C[C@@H]2CC[C@H](Oc3cccc(F)c3)[C@@H]2C1	-3.26
O=C(c1occc1CN1C(=O)Cc2ccccc21)N1CC(O)C1	-1.51
Cc1oc(C)c(C(=O)NCc2cccc(C(N)=O)c2)c1C	-4.54
O=C(NCCOc1ccccc1)c1ccc2c(c1)C(=O)NC2=O	3.38

SMILES	cytotoxicity at 70.5 h [%]
Cc1nn(C)c(Cl)c1C1CCCN1Cc1ccccn1 (stereo not drawn)	-7.44
CCCc1nc(CN(CC)Cc2ccoc2)no1	-7.87
CSc1ccccc1-n1ccnc1-c1cn(C2CCNCC2)nn1	2.69
COc1c(CNC(C)C(=O)NC2CCCC2)c(C(C)C)nn1C (stereo not drawn)	-6.92
COc1ccc(S(=O)(=O)NC(=O)COC2CCCC2)cc1	-5.57
N#Cc1cccnc1N1CCCN(C(=O)CCc2nccs2)CC1	-1.9
CCC(C)NC(=O)c1cncc(Br)c1 (stereo not drawn)	-2.39
COCCc1noc(Cn2ccc3ccccc3c2=O)n1	-0.672
NC(=O)CN1CCCC(Cc2ccc(N)nn2)C1 (stereo not drawn)	36.2
Cc1cc(CN2CCN(CC3CC3)[C@@H]3CS(=O)(=O)C[C@@H]32)ccc1F	6.58
CC(=O)NCC1CCN(CC2CCOc3ccccc3C2)CC1 (stereo not drawn)	-4.25
Cc1ccccc1C(C(=O)NCc1nc(-c2ncccn2)no1)N(C)C (stereo not drawn)	-6.36
CCN(CC)S(=O)(=O)N1CCCC(c2ccc(C(=O)O)cc2)C1 (stereo not drawn)	-4.81
CCOc1ccc(OCc2nccc(-c3cc(C(=O)O)ccn3)n2)cc1	16
CC(C)(C)c1n[nH]c(C2CN(CCNC3CCCCC3)CCO2)n1 (stereo not drawn)	-1.09
Cc1cnccc1-n1nc(C(C)C)nc1CCN(C)S(C)(=O)=O	-1.14
CN(C)c1nc(N)nc(CN2CCC(c3nc4ccccc4o3)CC2)n1	-7.79
CC(C)(C)c1nnc(CN2CCN(C(=O)N3CCCCC3)CC2)o1	-3.76
Cc1ccc(O)c(C(=O)NCCS(=O)(=O)Cc2ccccc2)c1	-5.32
CCC1CN(C)c2ccccc2CN1C(=O)Nc1cccc(F)c1 (stereo not drawn)	-9.77
Cc1ccc(C(=O)N(C)Cc2cc(Br)cs2)cn1	-8.7
